In patent US9895375B2, “Compositions containing riboflavin and sesamin-class compounds” (SUNTORY HOLDINGS LIMITED, priority 2006, dated 2018):

Experiments:
Wistar male rats = assay: acetic acid writhing test; assay type: in vivo
Experimental: A test on analgesic action was conducted by a partly modified version of the acetic acid writhing test of Moon et. al. (Biol. Pharm. Bull. (2005)). The specific test method was as follows. […] Three days before the acetic acid writhing test, the rats were divided into three groups each consisting of 6 heads; the control group was orally administered through a tube with olive oil at a dose of 5 ml/kg whereas the remaining two groups were administered with sesamin-class compounds (sesamin/episesamin mixture; sesamin: episesamin (weight ratio)=5:5) as they were dissolved in olive oil at respective doses of 50 mg/kg and 100 mg/kg. Subsequently, administration was similarly performed two days before the test and on the day before the test, two administrations were effected, one in the morning and the other in the evening; thus, a total of four administrations were effected. On the day of testing, rats that had been fasted overnight from the previous night were orally administered with 5 ml/kg of physiological saline and one hour later, they were administered intraperitoneally with 1 ml/170 g of physiological saline containing 1% acetic acid and immediately after this administration, the number of writhing movements the animals made for 30 minutes right after the administration was counted. […]

[1] = ingested in high doses; cited from earlier work
[2] = intraperitoneally, 3 to 100 mg/kg; cited from earlier work
male Balb/b mice = assay: water immersion sleep deprivation test (weighted swimming time); assay type: in vivo; settings: Example 3, FIG. 4; riboflavin 25 or 50 mg/kg (riboflavin equivalent), sesamin 50 mg/kg, p.o. once a day for 2 days of water immersion
Experimental: That is, by measuring the swimming time in a water-immersion sleep deprivation test. A mouse, kept in such an environment as water immersion that they are unable to have a sufficient sleep or resting position to rest physically or mentally, is forced to swim under the stress of a weight and the time it takes to have its nose submerged in the water for at least 10 seconds is measured to determine the degree of its fatigue. Since this animal model is a physical and mental fatigue model, if the administration of a test substance prolongs the swimming time, it is confirmed that the model has resistance to fatigue, as exemplified by prevention or amelioration of physical and mental fatigue and the accompanying distress such as muscular pain, an increase in physical strength that helps prolong the time to exhaustion, and maintenance of physical vigor in a fatigued state.
The effect against fatigue was evaluated by a water immersion sleep deprivation test. […]
After two days of water immersion, the mice were allowed to swim with a weight attached to each of their tails having a mass equivalent to 8% of their body weight, and the time they took to have their nose submerged in water for at least 10 seconds was measured.
The anti-fatigue action due to riboflavin and a sesamin-class compound(s) was measured as in Example 3, except that the mice were divided into six groups as shown in Table 2.

[3] = perorally, 1 to 50 mg/kg; no further rise up to 75 mg; cited from earlier work

## Cc1cc2nc3c(=O)[nH]c(=O)nc-3n(C[C@H](O)[C@H](O)[C@H](O)COP(=O)(O)O)c2cc1C [riboflavin, riboflavin sodium phosphate]
Wistar male rats; Example 1, FIG. 2, vitamin B2 30 mg/kg riboflavin equivalent p.o. alone
  number of writhing movements versus control group (Olive+Saline): tendency to make a smaller number of writhing movements than the control group
Wistar male rats; Example 2, FIG. 3, vitamin B2 30 mg/kg riboflavin equivalent p.o., sesamin-class compounds 100 mg/kg p.o. x4 in the combination
  suppression of number of writhing movements compared with control group (Olive+Saline): 10.5%
[1]
  migraine prophylaxis: effective for migraine prophylaxis
[2]
  analgesic action against inflammatory pain: showed an analgesic action against inflammatory pain in a dose-dependent fashion
  effect against pain in the nervous system: ineffective
Male Balb/b mice
  suppression of the shortening of the swimming time (anti-fatigue action): suppressed in the shortening of the swimming time
[3]
  analgesic effect in a formaldehyde test: peaked at 25 mg
